# Data published in paper PMC9014415, “Repositioning of a Diaminothiazole Series Confirmed to Target the Cyclin-Dependent Kinase CRK12 for Use in the Treatment of African Animal Trypanosomiasis” (Journal of Medicinal Chemistry, 2022).
# “And” between values parts separate entries of the source, which are not always exact repeats. Equal values may be shown once. Read-outs that look alike come from different tables or passages of the source.
# Tests used:
# [1] = PK in female NMRI mice, SC; assay type: in vivo, mouse
# Procedure: 2.5 PK and maximum tolerated dose - mouse
# PK studies in female NMRI mice (Figure S1): Test compounds 1, 2 and 10 were dosed SC at 10 mg free base/kg (dose volume 10 mL/kg; dose vehicle: 5% (v/v) DMSO, 40% polyethylene glycol 400 (PEG400) and 55% deionized water) to female NMRI mice (n = 3). Blood samples (10 μL) were taken from each mouse at 0.08, 0.25, 0.5, 1, 2, 4, 6, 8 h post dose (24 h post dose for compounds 2 and 10 only) and mixed with two volumes of deionized water (20 μL). Alternatively, compound 2 was delivered for 48 h via SC implanted ALZET osmotic pumps (10, 25 and 50 mg free base/mL, vehicle: 50% DMSO and 50% deionized water) to the female NMRI mouse (n = 3). Blood samples (10 μL) from each mouse were taken at 1, 3, 6, 24, 30 and 48 h post-dose and mixed with two volumes of deionized water (20 μL). […]
# [2] = Pharmacokinetic studies in male Friesian-Holstein cattle, IV and IM (Ridgeway); assay type: in vivo; settings: for Vd: read-out: Vdss
# Procedure: 2.7 Pharmacokinetic studies in cattle (see Table 2). Studies conducted at Ridgeway Compound 1 was dosed IM at 5 mg free base/kg (dose volume 2mL/10 kg; dose vehicle 10% N-Methyl-2-Pyrrolidinone (NMP), 40% 2-pyrrolidinone, 30% PEG400, 20% deionized water) or IV at 2.5 mg free base/kg (dose volume 0.4 mL/10 kg; 2.5% NMP, 30% PEG400, 37.5% propylene glycol, 30% water by volume) to male ruminating Holstein-Friesian cross animals (n = 4). Blood samples were taken from each animal using 18-G needles into EDTA (K2) vacutainers before dosing and at […]
# a cool box containing iced water and were processed within 2 h of collection (Figure S2, Table S1).
# Compound 2 was dosed IM at 10 mg free base/kg (dose volume 2 mL/10 kg; dose vehicle 40% 0.3 M Acetate Buffer, 20% Kolliphor EL, 20% glycerol formal, 20% 2-pyrrolidone) or IV at 2 mg free base/kg (dose volume 0.4 mL/10 kg; 40% 0.3 M Acetate Buffer, 20% Kolliphor EL, 20% glycerol formal, 20% 2-pyrrolidone) to male ruminating Holstein-Friesian cross animals (n = 3). Blood samples were taken from each animal using 18-G needles into EDTA (K2) vacutainers before dosing […]
# into a cool box containing iced water and were processed within 2 h of collection. […]
# [3] = cattle, IM 10 mg/kg, individual animals 1644, 3646, 7643
# [4] = cattle, IM 10 mg/kg, n = 3, mean
# [5] = cattle, IV 2 mg/kg, individual animals 1644, 3646, 7643, 2 mg/kg
# [6] = cattle, IV 2 mg/kg, n = 3, mean, 2 mg/kg
# [7] = male, Holstein-Friesian cross, bovine, blood, im, 10 mg/kg, cattle, IM 10 mg/kg, individual animals 1644, 3646, 7643
# [8] = male, Holstein-Friesian cross, bovine, blood, im, 10 mg/kg, cattle, IM 10 mg/kg, n = 3, mean
# [9] = male, Holstein-Friesian cross, bovine, blood, iv, 2 mg/kg, cattle, IV 2 mg/kg, individual animals 1644, 3646, 7643
# [10] = male, Holstein-Friesian cross, bovine, blood, iv, 2 mg/kg, cattle, IV 2 mg/kg, n = 3, mean
# [11] = cattle, IM 5 mg/kg, individual animals 2754, 7462, 1753, 6752
# [12] = cattle, IM 5 mg/kg, n = 4, mean
# [13] = cattle, IV 2.5 mg/kg, individual animals 2754, 7462, 1753, 6752, 2.5 mg/kg
# [14] = male, Holstein-Friesian cross, bovine, blood, im, 5 mg/kg, cattle, IM 5 mg/kg, individual animals 2754, 7462, 1753, 6752
structure (smiles),measurement,setting,value
"CC(C)CS(=O)(=O)N[C@H]1CC[C@H](Nc2nc(N)c(C(=O)c3c(F)cc(CN(C)C)cc3F)s2)CC1 [Compound 2, N-(trans)-[4-[[4-Amino-5-[4-(dimethylaminomethyl)-2,6-difluoro-benzoyl]thiazol-2-yl]amino]cyclohexyl]-2-methyl-propane-1-sulfonamide]",Cmax,"[1]; mouse, blood, 10 mg/kg, single SC 10 mg free base/kg",818 ng/mL
same,AUC(0-t),"[1]; mouse, blood, 10 mg/kg, single SC 10 mg free base/kg, read-out: AUC0-24 (converted)",2160 ng·h/mL
same,concentration at 8 h,"[1]; mouse, blood, single SC 10 mg free base/kg, read-out: Cmin (8 h)",10 ng/mL
same,Cav,[1]; single SC 10 mg free base/kg,78 ng/mL
same,Cav,"[2]; Friesian cattle, single IM 10 mg free base/kg",253 ng/mL
same,AUC 0-∞,[2]; [3],"510,000 ng-min/mL and 460,000 ng-min/mL"
same,Cmax,[2]; [3],"950 ng/mL and 1,700 ng/mL and 2,600 ng/mL"
same,F,[2]; [3],75% and 66%
same,AUC 0-∞,[2]; [4],"500,000 ± 30,000 ng-min/mL"
same,Cmax,[2]; [4],1700 ± 800 ng/mL
same,F,[2]; [4],73 ± 6%
same,Tmax,[2]; [4],1.3 ± 0.6 h
same,Injection site tolerability,"[2]; cattle, IM, pharmacokinetic study",irritancy and necrosis
same,AUC 0-∞,[2]; [5],"94,000 ng-min/mL and 180,000 ng-min/mL"
same,Clb,[2]; [5],14 mL/min/kg and 21 mL/min/kg and 11 mL/min/kg
same,half-life,[2]; [5],3 h
same,AUC 0-∞,[2]; [6],"140,000 ± 40,000 ng-min/mL"
same,Clb,[2]; [6],15 mL/min/kg and 15 ± 5 mL/min/kg
same,Vdss,[2]; [6],2.3 ± 0.6 L/kg
same,AUC,"[2]; male, Holstein-Friesian cross, bovine, blood, 10 mg/kg, Friesian cattle, single IM 10 mg free base/kg",7330 ng·h/mL
same,AUC(0-inf),[2]; [7],8830 ng·h/mL
same,bioavailability,[2]; [7],78%
same,Tmax,"[2]; male, Holstein-Friesian cross, bovine, blood, im, 10 mg/kg, cattle, IM 10 mg/kg, individual animals 1644, 3646, 7643, read-out: Tmax",2 h
same,AUC(0-inf),[2]; [8],8170 ng·h/mL
same,bioavailability,[2]; [8],74%
same,Cmax,"[2]; male, Holstein-Friesian cross, bovine, blood, im, 10 mg/kg, cattle, IM 10 mg/kg, n = 3, mean, read-out: Cmax",1720 ng/mL
same,Tmax,"[2]; male, Holstein-Friesian cross, bovine, blood, im, 10 mg/kg, cattle, IM 10 mg/kg, n = 3, mean, read-out: Tmax",1 h
same,concentration at 24 h,"[2]; male, Holstein-Friesian cross, bovine, blood, intramuscular, Friesian cattle, single IM 10 mg free base/kg, read-out: Cmin (24 h)",20 ng/mL
same,AUC(0-inf),[2]; [9],2330 ng·h/mL
same,half-life,"[2]; male, Holstein-Friesian cross, bovine, blood, iv, 2 mg/kg, cattle, IV 2 mg/kg, individual animals 1644, 3646, 7643, read-out: Half-life (converted)",6 h
same,Vd,[2]; [9],2 L/kg
same,AUC(0-inf),[2]; [10],2170 ng·h/mL
same,Vd,[2]; [10],3 L/kg
same,half-life,"[2]; male, Holstein-Friesian cross, bovine, whole blood, iv, 2 mg/kg, cattle, IV 2 mg/kg, n = 3, mean, read-out: half-life (converted)",4 ± 2 h
"CC(C)CS(=O)(=O)N[C@H]1CC[C@H](Nc2nc(N)c(C(=O)c3c(F)cccc3F)s2)CC1 [Compound 1, N-((trans)-4-((4-Amino-5-(2,6-difluorobenzoyl)thiazol-2-yl)amino)cyclohexyl)-2-methylpropane-1-sulfonamide]",bioavailability at 8 h,"[1]; mouse, whole blood, 10 mg/kg SC",74%
same,half-life at 8 h,"[1]; mouse, whole blood, 10 mg/kg SC, read-out: T½",1 h
same,half-life,"[1]; mouse, whole blood, 10 mg/kg SC, read-out: T½ (converted)",~1 h
same,AUC 0-∞,[2]; [11],"26,000 ng-min/mL and 15,000 ng-min/mL and 22,000 ng-min/mL"
same,Cmax,[2]; [11],70 ng/mL and 128 ng/mL and 118 ng/mL and 216 ng/mL
same,F,[2]; [11],11% and 7% (2×)
same,Tmax,[2]; [11],0.25 h
same,Cmax,[2]; [12],130 ± 60 ng/mL
same,F,[2]; [12],8.8 ± 2.1%
same,AUC 0-∞,[2]; [13],"120,000 ng-min/mL (2×) and 160,000 ng-min/mL"
same,Clb,[2]; [13],24 mL/min/kg and 20 mL/min/kg and 21 mL/min/kg and 15 mL/min/kg
same,Vdss,[2]; [13],3.5 L/kg and 1.8 L/kg and 2.5 L/kg and 1.7 L/kg
same,half-life,[2]; [13],1.7 h and 2.4 h
same,Clb,"[2]; cattle, IV 2.5 mg/kg, n = 4, mean ± SD",20 ± 4 mL/min/kg
same,AUC(0-inf),[2]; [14],350 ng·h/mL
same,bioavailability,[2]; [14],10%
same,Tmax,"[2]; male, Holstein-Friesian cross, bovine, blood, im, 5 mg/kg, cattle, IM 5 mg/kg, individual animals 2754, 7462, 1753, 6752, read-out: Tmax",0.5 h
same,bioavailability,"[2]; male, Holstein-Friesian cross, bovine, blood, im, 5 mg/kg, cattle, IM 5 mg/kg, n = 4, mean",9%
same,Cmax,"[2]; male, Holstein-Friesian cross, bovine, blood, im, 5 mg/kg, cattle, IM 5 mg/kg, n = 4, mean, read-out: Cmax",133 ng/mL
same,AUC(0-inf),"[2]; male, Holstein-Friesian cross, bovine, blood, iv, 2.5 mg/kg, cattle, IV 2.5 mg/kg, individual animals 2754, 7462, 1753, 6752",1670 ng·h/mL
same,half-life,"[2]; male, Holstein-Friesian cross, bovine, blood, iv, 2.5 mg/kg, cattle, IV 2.5 mg/kg, individual animals 2754, 7462, 1753, 6752, read-out: Half-life (converted)",1.2 h
same,AUC(0-inf),"[2]; male, Holstein-Friesian cross, bovine, blood, iv, 2.5 mg/kg, cattle, IV 2.5 mg/kg, n = 4, mean ± SD",2170 ng·h/mL
same,half-life,"[2]; male, Holstein-Friesian cross, bovine, blood, iv, 2.5 mg/kg, cattle, IV 2.5 mg/kg, n = 4, mean ± SD, read-out: half-life (converted)",~1.8 h
same,AUC(0-t),"[2]; male, Holstein-Friesian cross, bovine, blood, cattle, IM 5 mg/kg, mean, read-out: AUC0-8 (converted)",349 ng·h/mL
same,AUC(0-inf),"[2]; male, Holstein-Friesian cross, bovine, whole blood, im, 5 mg/kg, cattle, IM 5 mg/kg, n = 4, mean ± SD",350 ng·h/mL
same,Tmax,"[2]; male, Holstein-Friesian cross, bovine, whole blood, im, 5 mg/kg, cattle, IM 5 mg/kg, n = 4, mean ± SD, read-out: Tmax",0.44 ± 0.13 h
same,Vd,"[2]; male, Holstein-Friesian cross, bovine, whole blood, iv, 2.5 mg/kg, cattle, IV 2.5 mg/kg, n = 4, mean ± SD",2.4 ± 0.8 L/kg
